Columns and labels:
[1] = tested on: resveratrol prenyltransferase AhR4DT; test: Prenyltransferase assay with microsomal fraction of elicited peanut hairy roots; assay type: biochemical, Arachis hypogaea; conditions: for resveratrol prenyltransferase activity relative to Mg^2+: 10 mM divalent cation; for prenylation as prenyl acceptor: 100 μM acceptor, 300 μM DMAPP
AhR4DT-1 = AhR4DT-1 (Arachis hypogaea, UniProt A0A2H4GDC8); test: AhR4DT-1 activity in microsomal fraction of N. benthamiana leaves; conditions: for AhR4DT-1 activity relative to Mg^2+: 10 mM divalent cation or EDTA; for activity as prenyl donor: 300 μM donor, 100 μM resveratrol as prenyl acceptor; for prenylation as prenyl acceptor: DMAPP as prenyl donor
AhR3′DT-1 = AhR3′DT-1 (Arachis hypogaea, UniProt A0A2H4GDD0); test: AhR3′DT-1 activity in microsomal fraction of N. benthamiana leaves; conditions: for AhR3′DT-1 activity relative to Mg^2+: 10 mM divalent cation or EDTA; for activity as prenyl donor: 300 μM donor, 100 μM resveratrol as prenyl acceptor; for prenylation as prenyl acceptor: DMAPP as prenyl donor
[2] = tested on: peanut hairy root cultures; test: Inhibitor feeding experiment in elicited peanut hairy root cultures; assay type: cell-based, Arachis hypogaea
resveratrol prenylation = test: Screening for stilbenoid prenylation activity, crude extract of infiltrated N. benthamiana leaves; assay type: biochemical, Arachis hypogaea; conditions: resveratrol and DMAPP as substrates
Description: The engineered A. tumefaciens was grown in 5 mL of YEP medium, containing 50 mg/L of kanamycin (Sigma-Aldrich) and 30 mg/L of streptomycin (Sigma-Aldrich) for antibiotic selection, at 28° C. on an orbital shaker at 200 rpm. After cultivation for 2 days, 5 mL of bacterial suspension was inoculated into 50 mL of fresh YEP medium containing the antibiotics and allowed to grow for one additional day under the same conditions. Bacteria were pelleted by centrifugation, resuspended in 500 mL of induction medium containing 10 mM MgCl2 with 1 mM acetosyringone and incubated for 4 h at 28° C. under 200 rpm orbital shaking until their OD600 reached to a range from 0.5 to 0.6. Before the infiltration, 0.005% of Tween-20, 0.005% of Triton 100 and 0.005% of Silwet L-77 were added to bacterial cultures to enhance the efficiency of transformation in N. benthamiana leaves. Agrobacterium-mediated vacuum infiltration was performed on 4-week-old N. benthamiana following the methodology described previously (Medrano et al., 2009).
After 48 hours of post-infiltration, the “middle tier” of N. benthamiana leaves were harvested for prenylation activity screening. Five grams of leaf tissue (fresh weight) were grounded and homogenized using a mortar with pestle in 10 mL of extraction buffer containing 100 mM Tris-HCl (pH 7.6) and 10 mM dithiothreitol (DTT). […] The total protein concentration was determined by coomassie protein assay (Thermo Scientific) using bovine serum albumin as standard.
The reaction of crude cell-free extract of N. benthamiana leaves infiltrated with A. tumefaciens harboring the empty pBIB-Kan vector was used as control.

[3] = 100 clomazone with elicitors, 72 h
[4] = 10 μM mevastatin, 72-h treatment

Sequence of AhR3′DT-1 (A0A2H4GDD0 entry or part of it): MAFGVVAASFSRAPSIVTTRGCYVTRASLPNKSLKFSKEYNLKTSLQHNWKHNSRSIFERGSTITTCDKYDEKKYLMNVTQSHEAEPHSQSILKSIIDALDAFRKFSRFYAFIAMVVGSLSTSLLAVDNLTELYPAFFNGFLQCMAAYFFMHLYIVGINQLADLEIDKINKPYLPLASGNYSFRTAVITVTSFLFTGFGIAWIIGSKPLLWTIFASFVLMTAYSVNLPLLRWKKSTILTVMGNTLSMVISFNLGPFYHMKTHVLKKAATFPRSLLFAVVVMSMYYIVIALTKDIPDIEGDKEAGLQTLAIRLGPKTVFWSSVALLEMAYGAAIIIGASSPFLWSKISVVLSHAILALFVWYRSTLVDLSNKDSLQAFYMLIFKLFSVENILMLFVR
Sequence of AhR4DT-1 (A0A2H4GDC8 entry or part of it): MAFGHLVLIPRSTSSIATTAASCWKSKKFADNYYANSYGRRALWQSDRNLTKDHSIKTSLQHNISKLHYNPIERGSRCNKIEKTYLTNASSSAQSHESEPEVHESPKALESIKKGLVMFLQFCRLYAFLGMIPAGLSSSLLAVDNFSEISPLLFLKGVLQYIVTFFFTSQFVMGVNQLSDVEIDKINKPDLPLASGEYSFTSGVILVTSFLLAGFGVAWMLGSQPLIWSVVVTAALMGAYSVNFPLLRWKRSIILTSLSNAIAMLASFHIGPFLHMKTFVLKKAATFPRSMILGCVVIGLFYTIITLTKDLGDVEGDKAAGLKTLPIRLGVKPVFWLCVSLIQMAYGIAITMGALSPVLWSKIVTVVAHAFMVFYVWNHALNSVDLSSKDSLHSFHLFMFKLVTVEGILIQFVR

[Ca+2] [Ca^2+]
resveratrol prenyltransferase activity relative to Mg^2+ [1]: 0.9%

CC(C)=CCOP(=O)(O)OP(=O)(O)O [DMAPP, dimethylallyl pyrophosphate]
Vmax for AhR4DT-1 relative to AhR3′DT-1 (AhR4DT-1): 5.8 fold
Km ([1]; microsomal fraction of peanut hairy roots, 28° C., 60 min, read-out: apparent km): 91.9 ± 7.03 µM

O=C(O)CN(CCN(CC(=O)O)CC(=O)O)CC(=O)O [EDTA]
AhR4DT-1 activity relative to Mg^2+ (AhR4DT-1): no activity was detected
AhR3′DT-1 activity relative to Mg^2+ (AhR3′DT-1): no activity was detected

CC(C)=CCC/C(C)=C/CC/C(C)=C/COP(=O)(O)OP(=O)(O)O [FPP, farnesyl pyrophosphate]
activity as prenyl donor (AhR4DT-1): Neither AhR4DT-1 nor AhR3′DT-1 showed any detectable activity
activity as prenyl donor (AhR3′DT-1): Neither AhR4DT-1 nor AhR3′DT-1 showed any detectable activity

[Fe+2] [Fe^2+]
AhR4DT-1 activity relative to Mg^2+ (AhR4DT-1): 6.4%
AhR3′DT-1 activity relative to Mg^2+ (AhR3′DT-1): 34.8%
resveratrol prenyltransferase activity relative to Mg^2+ [1]: 14.6%

CC(C)=CCC/C(C)=C/CC/C(C)=C/CC/C(C)=C/COP(=O)(O)OP(=O)(O)O [GGPP, geranylgeranyl pyrophosphate]
activity as prenyl donor (AhR4DT-1): Neither AhR4DT-1 nor AhR3′DT-1 showed any detectable activity
activity as prenyl donor (AhR3′DT-1): Neither AhR4DT-1 nor AhR3′DT-1 showed any detectable activity

CC(C)=CCC/C(C)=C/COP(=O)(O)OP(=O)(O)O [GPP, geranyl pyrophosphate]
activity as prenyl donor (AhR4DT-1): Neither AhR4DT-1 nor AhR3′DT-1 showed any detectable activity
activity as prenyl donor (AhR3′DT-1): Neither AhR4DT-1 nor AhR3′DT-1 showed any detectable activity

[Mg+2] [Mg^2+]
AhR4DT-1 activity relative to Mg^2+ (AhR4DT-1): 100%
AhR3′DT-1 activity relative to Mg^2+ (AhR3′DT-1): 100%
resveratrol prenyltransferase activity relative to Mg^2+ [1]: 100%

[Mn+2] [Mn^2+]
AhR4DT-1 activity relative to Mg^2+ (AhR4DT-1): 83.9%
efficiency relative to Mg^2+ (AhR3′DT-1): 2.1 fold
AhR3′DT-1 activity relative to Mg^2+ (AhR3′DT-1): 210.3%
resveratrol prenyltransferase activity relative to Mg^2+ [1]: 71.8%

O=c1cc(-c2ccc(O)cc2)oc2cc(O)cc(O)c12 [apigenin]
prenylation as prenyl acceptor (AhR4DT-1): neither prenylated flavanone, prenylated flavone, nor prenylated isoflavone was detected
prenylation as prenyl acceptor (AhR3′DT-1): neither prenylated flavanone, prenylated flavone, nor prenylated isoflavone was detected

CC1(C)CON(Cc2ccccc2Cl)C1=O [clomazone]
yields of prenylated stilbenoids compared to non-inhibitor group ([2]; 10 μM and 100 μM clomazone): significantly lower yields of prenylated stilbenoids
yields of resveratrol compared to non-inhibitor group ([2]; 10 μM and 100 μM clomazone): significantly higher yields of resveratrol
piceatannol produced ([2]; 100 μM clomazone): 9.02 µM
resveratrol produced ([2]; 100 μM clomazone): 845.7 µM
accumulation of arachidin-5 and arachidin-1 ([2]; 100 μM clomazone, 48-hour): almost completely inhibited
piceatannol concentration ([2]; 100 μM clomazone, 72 h): increased only slightly
yield of resveratrol [2, 3]: 830.73 ± 25.83 µM
yield of resveratrol relative to non-inhibitor group [2, 3]: 6.3 fold
effects on accumulation of resveratrol and inhibition of prenylated stilbenoids accumulation ([2]; clomazone 1 μM to 100 μM with elicitors): increased with the concentration of clomazone
micromolar increase of resveratrol relative to overall decrease of arachidin-5, -1, -2 and -3 ([2]; clomazone with elicitors): about 1.54 fold
levels of all prenylated stilbenoids ([2]; clomazone, 24-h interval between 48- and 72-h time points): no significant increases
production of stilbenoids without elicitors ([2]; different concentrations of clomazone, no elicitors): none of these stilbenoids was detected

O=c1c(-c2ccc(O)cc2)coc2cc(O)cc(O)c12 [genistein]
prenylation as prenyl acceptor (AhR4DT-1): neither prenylated flavanone, prenylated flavone, nor prenylated isoflavone was detected
prenylation as prenyl acceptor (AhR3′DT-1): neither prenylated flavanone, prenylated flavone, nor prenylated isoflavone was detected

CC[C@H](C)C(=O)O[C@H]1CCC=C2C=C[C@H](C)[C@H](CC[C@@H]3C[C@@H](O)CC(=O)O3)[C@H]21 [mevastatin]
yields of resveratrol, piceatannol and prenylated stilbenoids ([2]; 10 μM mevastatin with elicitors): no significant effect
increase in yield of arachidin-1 [2, 4]: 41%
increase in yield of arachidin-5 [2, 4]: 27%
accumulation of arachidin-5, arachidin-1, arachidin-2 and arachidin-3 ([2]; 24-h interval between 48 and 72-h treatments): did not inhibit the accumulation
levels of prenylated stilbenoids ([2]; mevastatin at 1, 10, or 100 μM with 100 μM MeJA and 9 g/L CD, preliminary experiments): did not affect the levels of prenylated stilbenoids

O=C1C[C@@H](c2ccc(O)cc2)Oc2cc(O)cc(O)c21 [naringenin]
prenylation as prenyl acceptor (AhR4DT-1): neither prenylated flavanone, prenylated flavone, nor prenylated isoflavone was detected
prenylation as prenyl acceptor (AhR3′DT-1): neither prenylated flavanone, prenylated flavone, nor prenylated isoflavone was detected

Oc1cc(O)cc(/C=C/c2ccc(O)cc2O)c1 [oxyresveratrol]
prenylation as prenyl acceptor (AhR4DT-1): can selectively catalyze
prenylation as prenyl acceptor (AhR3′DT-1): prenylated products of piceatannol and prenylated oxyresveratrol were identified
prenylation as prenyl acceptor [1]: an isoprene unit was also transferred to oxyresveratrol

Oc1cc(O)cc(/C=C/c2ccc(O)c(O)c2)c1 [piceatannol, 3,5,3′,4′-tetrahydroxy-trans-stilbene]
Vmax for AhR4DT-1 relative to AhR3′DT-1 (AhR4DT-1): 6.9 fold
prenylation as prenyl acceptor (AhR4DT-1): can selectively catalyze
prenylation as prenyl acceptor (AhR3′DT-1): prenylated products of piceatannol and prenylated oxyresveratrol were identified
prenylation as prenyl acceptor [1]: catalyzed the synthesis of arachidin-5 as the predominant prenylated product

Oc1cc(O)cc(/C=C/c2ccccc2)c1 [pinosylvin]
prenylation as prenyl acceptor (AhR4DT-1): can selectively catalyze
prenylation as prenyl acceptor (AhR3′DT-1): no prenylated pinosylvin was produced
prenylation as prenyl acceptor [1]: catalyzed pinosylvin into chiricanine A

B1: AhR3′DT-3: stilbenoid prenyltransferase, GenBank KY565247 (protein, listed as Arachis hypogaea)
chain: MPFGLSASFLKSRSLHHHGWKFLKEREIHKQPLRNTRRALWNNNGKLSKEYCIKMQHNYWKNHCTNLKGGSMMSDDKFEKKYLVNATSKNSHDEPKKSQPILEFIKDGMDTFRQFSRLYAFFSFISSGLSSSLLAVDNLSNISPKMFLIGFLQFLIPNCIMFQYIVGVNQLADIEIDKINKPYLPLASGKYSLRNAIIIVASSLIMGFGSAWVLGSRPMFWCLVISTMLMTAYSVNLPLLRWKRSTILATLSLASSMTIGQHIAPFLHMKTVLKKALNYPRSLVFTVVVVSLFYTVISLAKDIPDIEGDKAAGHKTLAIHLGPRRVFWFCISLLQMTYGIAIIMGALSPILWSKIFTVVTHFIMSIILWYRANSVDLSNNDSLQSFYMAIFVFLSVENFLVLFVR
activity level relative to AhR3′DT-1 (resveratrol prenylation): 17%

B2: AhR3′DT-4: stilbenoid prenyltransferase, GenBank KY565248 (protein, listed as Arachis hypogaea)
chain: MASTSRLLLHASLPPPTTSISKTNSGSHAVIRSIWHNNGKYPKEKTCIETPLLLQHNQKHHYTCDQIKRKHFVKATHAQSKNEPEPQADSAKPIWNSIKDVMHTIQKFSVFYALIGLLSGILSSSLLAVEKLSDLSPTFFISMLQFMAAYSSMQLYTTGVNQLADIEIDKINKPYRPLASSKISFGGGLAIVAASLFMSFGLALMIGSKPLLWGLILIFILMTAYSVNLPFLRWKKSTILTLLSGVPTILTAYNLAPYLHMKTFVLKKPFIFTRSLAFTTVVMTFFYVVISLFKDIPDIEGDKKEGLQTLSIRLGPKRVFWLCISLLEMTYGIAIIMGLTSPFLWSKIFTVMAHAINAWILWFRANSVDLKSKEDFQSFYMFIFKLLYLENVLVLFVR
activity level relative to AhR3′DT-1 (resveratrol prenylation): 5%

B3: AhR3′DT-2: stilbenoid prenyltransferase, GenBank KY565246 (protein, listed as Arachis hypogaea)
chain: MPFGLSASFLKSRSFHHHGTRRALWNNNGKLSKEYCIKMQHNYWKNHCTNLKGGSMMSDDKFEKKYLVNATSKNSHDEPKKSQPILEFIKDGMDTFRQFSRLYAFFSFISSGLSSSLLAVDNLSNISPKMFLIGFLQFLIPNCIMFQYIVGVNQLADIEIDKINKPYLPLASGKYSLRNAIIIVASSLLMGFGSAWVLGSRPMFWCLVISTMLMTAYSVNLPLLRWKRSTILATLSLASSMTIGQHIAPFLHMKTVLKKALNYPRSLVFTVVVVSLFYTVISLAKDIPDIEGDKAAGHKTLAIHLGPRRVFWFCISLLQMTYGIAIIMGALSPILWSKIFTVVTHFIMSIILWYRANSVDLSNNDSLQSFYMAIFVFLSVENFLVLFVR
activity level relative to AhR3′DT-1 (resveratrol prenylation): 18%
